Measured values published in PubChem BioAssay (NCI).
Where “and” joins values, the source holds several entries; their conditions need not be identical. Equal entries are not always repeated.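 Method: 48-hour compound exposure of cells in 96-well plates, five concentrations, linear interpolation of endpoints. GI50 marks 50% less growth. TGI denotes the concentration required for complete inhibition of growth.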

What was measured:
Assay in all cases: NCI-60 cell line screen, 48 h
MCF7 breast = tested on: MCF7 breast
MDA-MB-231 breast = tested on: MDA-MB-231 breast
NCI/ADR-RES ovarian = tested on: NCI/ADR-RES ovarian
T-47D breast = tested on: T-47D breast
DLD-1 colon = tested on: DLD-1 colon
DMS 114 small cell lung = tested on: DMS 114 small cell lung
HOP-18 NSCLC = tested on: HOP-18 NSCLC
LXFL 529 NSCLC = tested on: LXFL 529 NSCLC
SNB-78 CNS = tested on: SNB-78 CNS
DMS 273 small cell lung = tested on: DMS 273 small cell lung

COc1ccc(C2=NN(C(C)=O)C(c3cn(-c4ccccc4)nc3-c3ccc(Cl)cc3)C2)cc1 (stereo not drawn)
GI50 (MCF7 breast): > 100 µM | TGI (MCF7 breast): > 100 µM | GI50 (MDA-MB-231 breast): > 100 µM | TGI (MDA-MB-231 breast): > 100 µM | GI50 (NCI/ADR-RES ovarian): > 100 µM | TGI (NCI/ADR-RES ovarian): > 100 µM | GI50 (T-47D breast): > 100 µM | TGI (T-47D breast): > 100 µM

CC(=O)N=c1ccc2nc3c(cc(N)c4ccccc43)oc-2c1
GI50 (MCF7 breast): 0.753 µM | TGI (MCF7 breast): 2.4 µM | GI50 (MDA-MB-231 breast): 1.25 µM | TGI (MDA-MB-231 breast): 3.92 µM | GI50 (NCI/ADR-RES ovarian): 1.62 µM | TGI (NCI/ADR-RES ovarian): 4.95 µM

CCCCCCCC[N+](C)(CCCCCCCC)CCCCCCCC
GI50 (MCF7 breast): 0.322 µM | TGI (MCF7 breast): 1.14 µM | GI50 (MDA-MB-231 breast): 0.338 µM | TGI (MDA-MB-231 breast): 1.26 µM | GI50 (NCI/ADR-RES ovarian): 1.51 µM | TGI (NCI/ADR-RES ovarian): 3.23 µM | GI50 (T-47D breast): 0.258 µM | TGI (T-47D breast): 1.73 µM

Cc1ccc(Cl)c(NC(=O)C(=O)C(C(=O)c2ccncc2)C2OC(=O)c3ccccc32)c1 (stereo not drawn)
TGI (DLD-1 colon): > 100 µM | TGI (DMS 114 small cell lung): > 100 µM | TGI (HOP-18 NSCLC): > 100 µM | TGI (LXFL 529 NSCLC): > 100 µM | TGI (SNB-78 CNS): > 100 µM

CN(C)CCCc1c[nH]c2ccccc12
TGI (MCF7 breast): > 100 µM | TGI (MDA-MB-231 breast): > 100 µM | TGI (NCI/ADR-RES ovarian): > 100 µM | TGI (T-47D breast): > 100 µM

O=C(Nc1nc2ncn(CC(COc3ccccc3)OC(=O)c3ccccc3)c2c(=O)[nH]1)c1ccccc1 (stereo not drawn)
TGI (DMS 114 small cell lung): > 100 µM | TGI (DMS 273 small cell lung): > 100 µM

CCCN(CCC)c1ccc(/C=N/NC(=O)c2cccnc2)c(Cl)c1
GI50 (MCF7 breast): 2.59 µM | TGI (MCF7 breast): 21.1 µM | GI50 (MDA-MB-231 breast): 12.4 µM | TGI (MDA-MB-231 breast): 28.5 µM | GI50 (NCI/ADR-RES ovarian): 5.78 µM | TGI (NCI/ADR-RES ovarian): 48.4 µM | GI50 (T-47D breast): 1.07 µM | TGI (T-47D breast): 13.9 µM

COc1ccc2c(c1)CC[C@@H]1[C@@H]2CC[C@]2(C)C(c3ccco3)=C(C=O)C[C@@H]12
GI50 (MCF7 breast): 8.2 µM | TGI (MCF7 breast): > 100 µM | GI50 (MDA-MB-231 breast): 10.8 µM | TGI (MDA-MB-231 breast): 30.7 µM | GI50 (NCI/ADR-RES ovarian): 11.5 µM | TGI (NCI/ADR-RES ovarian): 64.6 µM | GI50 (T-47D breast): 18.8 µM | TGI (T-47D breast): 92.3 µM

Nc1ncnc2c1ncn2C1OC(CO)=CC1O (stereo not drawn)
TGI (MCF7 breast): > 37.5 µM | TGI (MDA-MB-231 breast): > 37.5 µM | TGI (NCI/ADR-RES ovarian): > 37.5 µM | TGI (T-47D breast): > 37.5 µM

COc1cc(-c2cc(-c3nc4ccc(Cl)cc4[nH]3)[nH]n2)cc(OC)c1OC
GI50 (MCF7 breast): 2.17 µM | TGI (MCF7 breast): 7.75 µM | GI50 (MDA-MB-231 breast): 3.94 µM | TGI (MDA-MB-231 breast): 24.3 µM | GI50 (T-47D breast): 1.58 µM | TGI (T-47D breast): 4.54 µM

COC1=CC(c2ccc[nH]2)=N/C1=C\c1ccc[nH]1
GI50 (MCF7 breast): 0.346 µM | TGI (MCF7 breast): 11.9 µM | GI50 (MDA-MB-231 breast): 0.11 µM | TGI (MDA-MB-231 breast): 14.6 µM | GI50 (NCI/ADR-RES ovarian): 0.304 µM | TGI (NCI/ADR-RES ovarian): 13.8 µM | GI50 (T-47D breast): 0.151 µM | TGI (T-47D breast): 1.77 µM

NS(=O)(=O)c1ccc(N2N=C3c4ccccc4CC3C2c2ccc(Cl)cc2)cc1 (stereo not drawn)
GI50 (MCF7 breast): 25 µM | TGI (MCF7 breast): 59.5 µM | GI50 (MDA-MB-231 breast): 2.89 µM | TGI (MDA-MB-231 breast): 8.24 µM | GI50 (NCI/ADR-RES ovarian): 10.3 µM | TGI (NCI/ADR-RES ovarian): 38.5 µM | GI50 (T-47D breast): 32.9 µM | TGI (T-47D breast): > 100 µM

C=C1C(=O)O[C@H]2[C@H]1CC/C(COC(=O)NCc1c[nH]c3ccc(Cl)cc13)=C\CC[C@@]1(C)O[C@@H]21
GI50 (MDA-MB-231 breast): 1.66 µM | TGI (MDA-MB-231 breast): 3.3 µM | GI50 (NCI/ADR-RES ovarian): 2.84 µM | TGI (NCI/ADR-RES ovarian): 11.3 µM

Cc1[nH]c(=O)[nH]c(=O)c1CO
GI50 (MCF7 breast): > 100 µM | TGI (MCF7 breast): > 100 µM | GI50 (MDA-MB-231 breast): > 100 µM | TGI (MDA-MB-231 breast): > 100 µM | GI50 (NCI/ADR-RES ovarian): > 100 µM | TGI (NCI/ADR-RES ovarian): > 100 µM | GI50 (T-47D breast): > 100 µM | TGI (T-47D breast): > 100 µM

C[C@@H]1C=C2C(=O)O[C@@H]3CC[C@H](C1)[C@]23O
GI50 (MCF7 breast): 2.5 µM | TGI (MCF7 breast): 13.3 µM | GI50 (MDA-MB-231 breast): 3.96 µM | TGI (MDA-MB-231 breast): 17.4 µM | GI50 (NCI/ADR-RES ovarian): 11.9 µM | TGI (NCI/ADR-RES ovarian): 95.8 µM | GI50 (T-47D breast): 3.02 µM | TGI (T-47D breast): 15.1 µM

N#Cc1ccnc(N2C(=O)CC[C@H]2C(=O)N(c2cncc(F)c2)[C@H](C(=O)NC2CC(F)(F)C2)c2ccccc2Cl)c1
GI50 (MCF7 breast): 27 µM | TGI (MCF7 breast): > 100 µM | GI50 (MDA-MB-231 breast): 50.7 µM | TGI (MDA-MB-231 breast): > 100 µM | GI50 (NCI/ADR-RES ovarian): > 100 µM | TGI (NCI/ADR-RES ovarian): > 100 µM | GI50 (T-47D breast): > 100 µM | TGI (T-47D breast): > 100 µM

COc1cc(/C=C2\COc3ccc(O)c(O)c3C2=O)cc(OC)c1
GI50 (MCF7 breast): 1.71 µM | TGI (MCF7 breast): 14.6 µM | GI50 (MDA-MB-231 breast): 2.47 µM | TGI (MDA-MB-231 breast): 10.6 µM | GI50 (NCI/ADR-RES ovarian): 2.24 µM | TGI (NCI/ADR-RES ovarian): 46.5 µM | GI50 (T-47D breast): 1.45 µM | TGI (T-47D breast): 8 µM

O=c1c2ccccc2c2nc3ccccc3nc2n1C1CCCCC1
TGI (DMS 114 small cell lung): > 100 µM | TGI (DMS 273 small cell lung): > 100 µM | TGI (LXFL 529 NSCLC): > 100 µM | TGI (SNB-78 CNS): > 100 µM

O=C(NC1=NC2C=CC([N+](=O)[O-])=CC2S1)C(=O)Nn1c(=S)[nH]c2ccccc2c1=O (stereo not drawn)
TGI (MCF7 breast): > 100 µM | TGI (MDA-MB-231 breast): > 100 µM | TGI (NCI/ADR-RES ovarian): > 100 µM | TGI (T-47D breast): > 100 µM

Cc1nc(NC(=O)CCCN2C(=O)c3cccc4cccc(c34)C2=O)sc1C(=O)Nc1cc(C(=O)NCCCN(C)C)n(C)c1
GI50 (MCF7 breast): > 100 µM | TGI (MCF7 breast): > 100 µM | GI50 (MDA-MB-231 breast): > 100 µM | TGI (MDA-MB-231 breast): > 100 µM | GI50 (NCI/ADR-RES ovarian): > 100 µM | TGI (NCI/ADR-RES ovarian): > 100 µM | GI50 (T-47D breast): > 100 µM | TGI (T-47D breast): > 100 µM

CCC(C)C(NC(=O)C1CCCN1C(=O)C(NC(=O)C(C)N)C(C)C)C(N)=O (stereo not drawn)
GI50 (MCF7 breast): > 100 µM | TGI (MCF7 breast): > 100 µM | GI50 (MDA-MB-231 breast): > 100 µM | TGI (MDA-MB-231 breast): > 100 µM | GI50 (T-47D breast): > 100 µM | TGI (T-47D breast): > 100 µM

CO[C@@H]1[C@H](OC(=O)NC(=O)CCl)CC[C@]2(CO2)[C@H]1[C@@]1(C)O[C@@H]1CC=C(C)C
GI50 (DLD-1 colon): 5.1 µM | TGI (DLD-1 colon): 42 µM | GI50 (DMS 114 small cell lung): 2170 nM | TGI (DMS 114 small cell lung): 23.4 µM | GI50 (LXFL 529 NSCLC): 6.1 µM | TGI (LXFL 529 NSCLC): 20.9 µM | GI50 (MCF7 breast): 10.7 µM | TGI (MCF7 breast): 44.4 µM and 180 µM | GI50 (MDA-MB-231 breast): 4.28 µM | TGI (MDA-MB-231 breast): 38.1 µM and 12.7 µM | GI50 (NCI/ADR-RES ovarian): 27.9 µM | TGI (NCI/ADR-RES ovarian): 62.4 µM and 111 µM | GI50 (T-47D breast): 4.03 µM | TGI (T-47D breast): 41.9 µM and 68.9 µM

Cc1ccc(S(=O)(=O)N2CCc3ccc(O)c4c3C2Cc2cc(Cl)ccc2-4)cc1 (stereo not drawn)
GI50 (MCF7 breast): 1.08 µM | TGI (MCF7 breast): 6.28 µM | GI50 (MDA-MB-231 breast): 1.21 µM | TGI (MDA-MB-231 breast): 4.74 µM | GI50 (NCI/ADR-RES ovarian): 0.819 µM | TGI (NCI/ADR-RES ovarian): 2.27 µM | GI50 (T-47D breast): 1.76 µM | TGI (T-47D breast): 19.7 µM

Cc1ccc(C)c(-c2csc(Nc3ccc(C)c(C)c3)n2)c1
GI50 (MCF7 breast): 35.9 µM | TGI (MCF7 breast): > 100 µM | GI50 (MDA-MB-231 breast): > 100 µM | TGI (MDA-MB-231 breast): > 100 µM | GI50 (NCI/ADR-RES ovarian): > 100 µM | TGI (NCI/ADR-RES ovarian): > 100 µM | GI50 (T-47D breast): > 100 µM | TGI (T-47D breast): > 100 µM

Cn1cc(C2=C(c3cn(CCN)c4ccccc34)C(=O)NC2=O)c2ccccc21
GI50 (MCF7 breast): 3.72 µM | TGI (MCF7 breast): > 23.4 µM | GI50 (MDA-MB-231 breast): 6 µM | TGI (MDA-MB-231 breast): 19.2 µM | GI50 (NCI/ADR-RES ovarian): 10.7 µM | TGI (NCI/ADR-RES ovarian): > 25 µM | GI50 (T-47D breast): 5.32 µM | TGI (T-47D breast): 14.7 µM

COc1ccc2nc3ccccc3c(NCCCCCCN(C)CCCl)c2c1
TGI (DMS 114 small cell lung): 1.69 µM | TGI (DMS 273 small cell lung): 1.26 µM | TGI (LXFL 529 NSCLC): 1.76 µM | TGI (SNB-78 CNS): 4.79 µM

COc1ccc(-c2ccc(C3CC(c4ccc(Cl)cc4)=NN3)o2)c([N+](=O)[O-])c1 (stereo not drawn)
GI50 (MCF7 breast): > 100 µM | TGI (MCF7 breast): > 100 µM | GI50 (MDA-MB-231 breast): > 100 µM | TGI (MDA-MB-231 breast): > 100 µM | GI50 (NCI/ADR-RES ovarian): > 100 µM | TGI (NCI/ADR-RES ovarian): > 100 µM | GI50 (T-47D breast): > 100 µM | TGI (T-47D breast): > 100 µM
